In one experiment the target is T1, Epidermal growth factor receptor (Homo sapiens, UniProt P00533). As to the kind of experiment: Inhibition of EGFR (unknown origin) after 40 mins by scintillation proximity assay.
T1 sequence (P00533 whole entry): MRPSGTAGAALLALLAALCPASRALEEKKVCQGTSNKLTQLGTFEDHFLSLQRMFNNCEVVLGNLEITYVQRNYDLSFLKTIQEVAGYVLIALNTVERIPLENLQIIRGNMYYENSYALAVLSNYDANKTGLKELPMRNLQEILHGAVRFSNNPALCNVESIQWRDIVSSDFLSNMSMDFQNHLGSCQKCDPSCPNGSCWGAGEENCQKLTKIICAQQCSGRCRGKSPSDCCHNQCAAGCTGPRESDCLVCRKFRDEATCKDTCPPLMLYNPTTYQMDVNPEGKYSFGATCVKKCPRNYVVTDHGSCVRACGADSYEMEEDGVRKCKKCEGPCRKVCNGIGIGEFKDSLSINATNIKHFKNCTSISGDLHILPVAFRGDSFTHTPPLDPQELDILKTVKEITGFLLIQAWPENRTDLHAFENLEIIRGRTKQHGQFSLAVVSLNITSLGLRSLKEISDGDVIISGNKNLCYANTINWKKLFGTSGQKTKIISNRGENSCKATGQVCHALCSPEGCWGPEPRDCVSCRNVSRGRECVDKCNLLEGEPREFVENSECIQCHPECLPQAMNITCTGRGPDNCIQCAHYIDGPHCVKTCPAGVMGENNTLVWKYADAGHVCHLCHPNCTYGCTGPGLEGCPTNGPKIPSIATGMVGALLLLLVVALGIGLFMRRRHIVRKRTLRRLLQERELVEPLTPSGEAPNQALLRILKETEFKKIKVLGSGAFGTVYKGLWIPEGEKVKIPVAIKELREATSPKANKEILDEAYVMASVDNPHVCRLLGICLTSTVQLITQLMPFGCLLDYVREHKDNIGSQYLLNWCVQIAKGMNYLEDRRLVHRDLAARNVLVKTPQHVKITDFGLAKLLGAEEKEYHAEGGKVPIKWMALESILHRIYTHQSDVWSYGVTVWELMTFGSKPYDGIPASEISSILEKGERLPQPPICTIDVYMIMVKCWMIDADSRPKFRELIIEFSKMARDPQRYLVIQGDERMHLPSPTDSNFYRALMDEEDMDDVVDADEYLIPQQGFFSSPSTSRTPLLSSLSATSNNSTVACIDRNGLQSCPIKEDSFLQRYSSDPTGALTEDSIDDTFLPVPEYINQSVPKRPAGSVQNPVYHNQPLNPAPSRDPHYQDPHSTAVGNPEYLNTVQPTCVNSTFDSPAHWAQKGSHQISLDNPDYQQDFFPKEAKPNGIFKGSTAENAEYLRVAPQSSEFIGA
The molecule `Fc1cccc(COc2ccc(Nc3ncnc4sc(C#CC5CCCN5)cc34)cc2Cl)c1` (centres undefined) gave an IC50 of 109 nM.

The next experiment addresses T1, Epidermal growth factor receptor. The experiment is described as follows: Inhibition of EGFR (unknown origin) by Z'-LYTE assay.
Take `COc1ccccc1-c1cc2c(NCc3ccccn3)ncnc2s1`: the IC50 was 183 nM.

On to `COc1ccccc1-c1cc2c(N[C@H](C)c3ccccn3)ncnc2s1`, for which half-maximal inhibition (IC50) required 153 nM.

On to `Fc1ccc(Nc2ncnc3sc(Br)cc23)cc1Cl`, for which the IC50 came out at 53 nM.

Regarding `C#Cc1cccc(Nc2ncnc3sc(Br)cc23)c1`, it took 23 nM to reach half-maximal inhibition (IC50). This IC50 is about 2.3-fold lower than that of the molecule before.

As to `Brc1cc2c(Nc3cccc(OCc4ccccc4)c3)ncnc2s1`, the IC50 is over 10000 nM.

Molecule `Fc1cccc(COc2ccc(Nc3ncnc4sc(Br)cc34)cc2Cl)c1` had an IC50 of 257 nM.

Molecule `COc1ccccc1-c1cc2c(NCc3ccccc3)ncnc2s1` came in with an IC50 of 17 nM.

`COc1ccccc1-c1cc2c(N[C@H](C)c3ccccc3)ncnc2s1` showed an IC50 of 9 nM. Compared with the last molecule, the IC50 is about 1.9-fold lower.

The molecule `COc1ccccc1-c1cc2c(N[C@@H](C)c3ccccc3)ncnc2s1` registered an IC50 of 1860 nM. This IC50 is about 210-fold higher than that of the molecule before.

`COc1ccccc1-c1cc2c(N[C@H](CO)c3ccccc3)ncnc2s1` had an IC50 of 1 nM.

In turn, `COc1ccccc1-c1cc2c(N[C@@H](CO)c3ccccc3)ncnc2s1` came in with an IC50 of 629 nM.

In turn, `COC[C@@H](Nc1ncnc2sc(-c3ccccc3OC)cc12)c1ccccc1` yielded an IC50 of 23 nM.

In turn, `COc1ccccc1-c1cc2c(N[C@H](C)c3ccc(F)cc3)ncnc2s1` displayed an IC50 of 27 nM. The IC50 values of the last two molecules are within 1.5-fold of each other.

`COc1ccccc1-c1cc2c(NCc3ccncc3)ncnc2s1` yielded an IC50 of 108 nM.

`COc1ccccc1-c1cc2c(NCc3cccnc3)ncnc2s1`: the IC50 came to 275 nM. This IC50 lies about 2.5-fold higher than the previous one.

The molecule `Brc1cc2c(NCc3ccccc3)ncnc2s1` yielded an IC50 of 241 nM.

Regarding `C[C@@H](Nc1ncnc2sc(Br)cc12)c1ccccc1`, the half-maximal inhibitory concentration (IC50) is 38 nM.

In turn, `C[C@H](Nc1ncnc2sc(Br)cc12)c1ccccc1` yielded an IC50 of over 10000 nM.

As for `OC[C@@H](Nc1ncnc2sc(Br)cc12)c1ccccc1`, the IC50 came to 36 nM. This counts as double-digit nanomolar.

Turning to `OC[C@H](Nc1ncnc2sc(Br)cc12)c1ccccc1`, the IC50 is over 10000 nM.

Consider `COC[C@@H](Nc1ncnc2sc(Br)cc12)c1ccccc1`, for which 262 nM corresponded to half-maximal inhibition (IC50).

As for `COC[C@H](Nc1ncnc2sc(Br)cc12)c1ccccc1`, the IC50 is over 10000 nM.

`CC[C@@H](Nc1ncnc2sc(Br)cc12)c1ccccc1` had an IC50 of 183 nM. This counts as sub-micromolar.

With `C[C@@H](Nc1ncnc2sc(Br)cc12)c1ccc(F)cc1`, the IC50 is 150 nM.

`Brc1cc2c(NCc3ccncc3)ncnc2s1`: the IC50 is 3880 nM.

`Brc1cc2c(NCc3cccnc3)ncnc2s1` returned an IC50 of over 10000 nM.

With `Brc1cc2c(NCc3ccccn3)ncnc2s1`, the IC50 is 7900 nM. That is a single-digit micromolar value.

Take `C[C@@H](Nc1ncnc2sc(Br)cc12)c1ccccn1`: half-maximal inhibition (IC50) required 2080 nM.

The molecule `Brc1cc2c(NCc3cccs3)ncnc2s1` showed an IC50 of 1370 nM.

For the molecule `C[C@@H](Nc1ncnc2sc(Br)cc12)c1cccs1`, the IC50 worked out at 415 nM. Compared with the last molecule, the IC50 is about 3.3-fold lower.

On to `Brc1cc2c(Nc3ccccc3)ncnc2s1`, for which the IC50 is 80 nM.

As to `COc1ccccc1-c1cc2c(NCc3cccs3)ncnc2s1`, the IC50 was 170 nM.

Take `COc1ccccc1-c1cc2c(N[C@H](C)c3cccs3)ncnc2s1`: the IC50 came out at 55 nM. This IC50 is about 3.1-fold lower than that of the molecule before.

Molecule `COc1ccccc1-c1cc2c(Nc3ccccc3)ncnc2s1` displayed an IC50 of 173 nM. Against the preceding molecule, the IC50 is about 3.1-fold higher.

For `COc1ccccc1-c1cc2c(Nc3ccc(F)c(Cl)c3)ncnc2s1`, the midpoint of inhibition, the IC50, lay at 5 nM. Compared with the last molecule, the IC50 is about 35-fold lower.

`C#Cc1cccc(Nc2ncnc3sc(-c4ccccc4OC)cc23)c1` had an IC50 of 18 nM. This IC50 lies about 3.6-fold higher than the previous one.

For the molecule `COc1ccccc1-c1cc2c(NC(C)c3ccccc3)ncnc2s1` (racemic), it took 19 nM to reach half-maximal inhibition (IC50).

For `COc1ccccc1-c1cc2c(NC(CO)c3ccccc3)ncnc2s1` (racemic), the midpoint of inhibition, the IC50, lay at 8 nM. Compared with the last molecule, the IC50 is about 2.4-fold lower.

Molecule `CC(Nc1ncnc2sc(Br)cc12)c1ccccc1` (racemic) returned an IC50 of 156 nM. Against the preceding molecule, the IC50 is about 20-fold higher.

For `OCC(Nc1ncnc2sc(Br)cc12)c1ccccc1` (racemic), it took 83 nM to reach half-maximal inhibition (IC50).

The target is the same in another experiment. The experiment is described as follows: Inhibition of EGFR (unknown origin) using Poly(Glu:Tyr) 4:1 as substrate after 12 to 16 hrs.
`OC[C@@H](Nc1ncnc2sc(-c3ccc(CN4CCNCC4)cc3)cc12)c1ccccc1` gave an IC50 of 600 nM.

`OCCN1CCN(Cc2ccc(-c3cc4c(N[C@H](CO)c5ccccc5)ncnc4s3)cc2)CC1` yielded an IC50 of 600 nM.

On to `O=C(c1ccc(-c2cc3c(N[C@H](CO)c4ccccc4)ncnc3s2)cc1)N1CCN(CCO)CC1`, for which the IC50 is over 5000 nM.

For the origin of these results see ChEMBL document CHEMBL3414443, “Truncated structures used in search for new lead compounds and in a retrospective analysis of thienopyrimidine-based EGFR inhibitors” (Eur J Med Chem, 2015).
